Read-outs that look alike come from different tables or passages of the source.

This is an account of results in patent publication US7087616B2, “Pyrazolyl pyrimidines” (Bayer CropScience AG, priority 2001, dated 2006).

A short description of data set [1]: logP determination by HPLC (EEC Directive 79/831 Annex V.A8). The data set is classed as physicochemical. The settings on record: pH 2.3, HPLC reversed-phase column (C 18), 43° C. On the procedure: The stated logp values were determined in accordance with EEC Directive 79/831 Annex V.A8 by HPLC (High Performance Liquid Chromatography) using a reversed-phase column (C 18). Temperature: 43° C.
Mobile phases for the determination in the acidic range: 0.1% aqueous phosphoric acid, acetonitrile; linear gradient from 10% acetonitrile to 90% acetonitrile.
Calibration was carried out using unbranched alkane-2-ones (having 3 to 16 carbon atoms) with known logp values (determination of the logp values by the retention times using linear interpolation between two successive alkanones).

For data set [2], the system named is cotton aphid (Aphis gossypii). The data set can be described thus: Aphis gossypii Test. It counts as in vivo. The conditions noted are these: 144 h, 500 ppm, cotton leaves dipped, read-out: Kill rate in % after 6d. On the procedure:
(§1) To produce a suitable preparation of active compound, 1 part by weight of active compound is mixed with the stated amounts of solvent and emulsifier, and the concentrate is diluted with emulsifier-containing water to the desired concentration.
Cotton leaves (Gossypium hirsutum) which are heavily infested by the cotton aphid (Aphis gossypii) are treated by being dipped into the preparation of active compound of the desired concentration.
(§2) After the desired period of time, the kill in % is determined. 100% means that all aphids have been killed; 0% means that none of the aphids have been killed.

The subject of data set [3] is peach aphids (Myzus persicae). Nature of the data set: Myzus Test/Cabbage. The data set is classed as in vivo. The conditions noted are these: 144 h, read-out: Kill rate in % after 6d. On the procedure:
as §1
Cabbage leaves (Brassica oleracea) which are heavily infested by peach aphids (Myzus persicae) are treated by being dipped into the preparation of active compound of the desired concentration.
as §2
Amounts of solvent, amounts of emulsifier, active compounds, active compound concentrations and test results are shown in the Tables below.

The mark [4] stands for this setting: reversed-phase HPLC column (C 18), read-out: log P(pH 2.3).
The mark [5] stands for this setting: reversed-phase HPLC column (C 18).
Where [6] appears, read: 500 ppm, Table B 2, cabbage leaves dipped.
The mark [7] stands for this setting: 500 ppm, Table B 1, cabbage leaves dipped.

In the case of `CCOC(=O)CSc1nccc(-n2cc(Cl)cn2)n1` [Example 19], the chromatographic logP in data set [1] (setting [4]) is 3.01.

Turning to `CN(CC(=O)O)c1nccc(-n2cc(Br)cn2)n1` [Example 62], in data set [1] (setting [4]), the chromatographic logP was found to be 1.91. Take `CCOC(=O)CSc1nccc(-n2cc(OC)cn2)n1`: the pest or weed control at 500 ppm in data set [2] came to 95%.

On to `CN(CC(=O)OCC(F)(F)C(F)(F)F)c1nccc(-n2cccn2)n1` [Example 60], for which the chromatographic logP in data set [1] (read-out: log P(pH 2.3)) worked out at 3.2.

As to `CN(CC(=O)OCC(F)(F)C(F)(F)C(F)(F)F)c1nccc(-n2cc(Cl)cn2)n1` [drawing 189], in data set [3], the pest or weed control at 500 ppm stood at 100%. On to `CCOC(=O)CN(C)c1nccc(-n2cccn2)n1` [Example 3, ethyl N-methyl-N-[4-(1H-pyrazol-1-yl)-2-pyrimidinyl]glycinate], for which the chromatographic logP in data set [1] (setting [5]) stood at 2.1.

As for `O=C(CSc1nccc(-n2cccn2)n1)OCC(F)(F)C(F)(F)C(F)(F)F`, the pest or weed control at 500 ppm in data set [3] was found to be 100%.

For the compound `CC(OC(=O)CSc1nccc(-n2cc(Br)cn2)n1)C(F)(F)C(F)(F)F` (stereo not shown) [Example 92], the chromatographic logP in data set [1] (setting [4]) is 4.3. For the compound `O=C(CSc1nccc(-n2cc(Br)cn2)n1)OCC(F)(F)C(F)(F)C(F)(F)F` [Example 90], in data set [1] (read-out: log P(pH 2.3)), the chromatographic logP amounted to 4.34. Take `CN(CC(=O)OCC(F)(F)C(F)(F)C(F)(F)F)c1nccc(-n2cccn2)n1`: the pest or weed control at 500 ppm in data set [3] worked out at 100%. For `COc1cnn(-c2ccnc(SCC(=O)OCC(F)(F)F)n2)c1` [drawing 205], in data set [2], the pest or weed control at 500 ppm amounted to 100%. In the case of `O=C(CSc1nccc(-n2cccn2)n1)OC(C(F)(F)F)C(F)(F)F`, in data set [3] (setting [6]), the pest or weed control at 500 ppm is 100%. For the compound `CC(OC(=O)CSc1nccc(-n2cc(Cl)cn2)n1)C(F)(F)C(F)(F)C(F)(F)F` (stereo not shown) [drawing 191], the pest or weed control at 500 ppm in data set [3] is 100%. On to `CCOC(=O)CSc1nccc(-n2cc(N)cn2)n1` [Example 99], for which the chromatographic logP in data set [1] (setting [4]) stood at 0.94. The same measure, in the same setting: with `CCOC(=O)CSc1nccc(-n2cc(SC(F)(F)C(F)F)cn2)n1` [Example 102] the figure was 3.45. In the case of `CCOC(=O)CN(C)c1nccc(-n2cc(OC(C)C)cn2)n1` [Example 51], in data set [1] (setting [4]), the chromatographic logP was determined as 2.89. For `COc1cnn(-c2ccnc(SCC(=O)OC(C)C(F)(F)C(F)(F)C(F)(F)F)n2)c1` (stereo not shown) [drawing 192], the pest or weed control at 500 ppm in data set [3] stood at 100%. For the compound `COc1cnn(-c2ccnc(SCC(=O)OCC(F)(F)C(F)(F)C(F)(F)F)n2)c1` [Example 91], the chromatographic logP in data set [1] (read-out: log P(pH 2.3)) amounted to 3.78. As to `CCOC(=O)CSc1nccc(-n2cc(C(F)(F)F)cn2)n1` [drawing 188], the pest or weed control at 500 ppm in data set [3] (setting [6]) is 100%. On to `O=C(O)CSc1nccc(-n2cc(Cl)cn2)n1` [Example 82], for which the chromatographic logP in data set [1] (setting [4]) stood at 1.81. Still for that read-out and setting: with `CCOC(=O)CSc1nccc(-n2ccc(-c3ccc(Cl)cc3)n2)n1` [Example 8] the figure was 4.5.

In the case of `COc1cnn(-c2ccnc(SCC(=O)O)n2)c1` [drawing 190], in data set [3] (setting [6]), the pest or weed control at 500 ppm is 100%. Take `CCOC(=O)CSc1nccc(Br)n1` [Ethyl [(4-bromo-2-pyrimidinyl)thio]acetate]: the chromatographic logP in data set [1] (setting [5]) was determined as 2.27. In turn, `CCOC(=O)CSc1nccc(-n2nccc2[N+](=O)[O-])n1` [Example 2, ethyl {[4-(5-nitro-1H-pyrazol-1-yl)-2-pyrimidinyl]thio}acetate] registered a chromatographic logP in data set [1] (setting [5]) of 2.55. On to `CCOC(=O)CSc1nccc(-n2cccn2)n1` [Example 5], for which the chromatographic logP in data set [1] (setting [4]) stood at 2.19. On the same count and under the same terms, with `CCOC(=O)CSc1nccc(-n2cc([N+](=O)[O-])cn2)n1` [Example 12] the figure was 2.56. Regarding `COC(=O)CSc1nccc(-n2cc(Br)cn2)n1` [Example 7], the chromatographic logP in data set [1] (setting [4]) was determined as 2.69. With `CN(CC(=O)OCC(F)(F)C(F)(F)C(F)(F)C(F)F)c1nccc(-n2cccn2)n1` [Example 73], the chromatographic logP in data set [1] (read-out: log P(pH 2.3)) worked out at 3.46. On to `CCOC(=O)CSc1nccc(-n2cc(Br)c(N)n2)n1` [Example 41], for which the chromatographic logP in data set [1] (setting [4]) stood at 2.18. On the same count and under the same terms, as for `CCOC(=O)CSc1nccc(-n2cc(C(F)(F)F)cn2)n1` [Example 64], the figure is 3.27. `COc1cnn(-c2ccnc(SCC(=O)OCC(F)(F)F)n2)c1` [Example 101]: the chromatographic logP in data set [1] (setting [4]) worked out at 2.87. For the compound `O=C(CSc1nccc(-n2cccn2)n1)OCC(F)(F)F`, the pest or weed control at 500 ppm in data set [3] (setting [6]) was 100%. For `CCOC(=O)CSc1nccc(-n2cc(CC)cn2)n1` [Example 55], in data set [1] (setting [4]), the chromatographic logP worked out at 2.99. For the compound `COc1cnn(-c2ccnc(SCC(=O)OC(C)C(F)(F)C(F)(F)C(F)(F)F)n2)c1` (stereo not shown) [Example 93], the chromatographic logP in data set [1] (read-out: log P(pH 2.3)) is 4.14.

For `CN(CC(=O)O)c1nccc(-n2cc(Cl)cn2)n1` [Example 63], the chromatographic logP in data set [1] (setting [4]) was determined as 1.82. As for `COc1cnn(-c2ccnc(N(C)CC(=O)OCC(F)(F)F)n2)c1`, the pest or weed control at 500 ppm in data set [3] (setting [6]) stood at 100%. For the compound `CCOC(=O)CN(CC(C)C)c1nccc(-n2cccn2)n1` [Example 69], the chromatographic logP in data set [1] (setting [4]) turned out to be 3.57. Same read-out and setting: with `CCOC(=O)CSc1nccc(-n2cc(C(=O)OCC)cn2)n1` [Example 47] the figure was 2.79; with `CCOC(=O)CSc1nccc(-n2nc(C#N)c3ccccc32)n1` [Example 17], 3.64.

Consider `O=C(O)CSc1nccc(-n2cc(Br)cn2)n1` [drawing 186], for which, in data set [3] (setting [6]), the pest or weed control at 500 ppm is 100%. The same measure, in the same setting: with `CCOC(=O)CSc1nccc(-n2cc(-c3ccccc3)cn2)n1` [drawing 177] the figure was 100%. For the compound `CCOC(=O)CSc1nccc(-n2ncc3ccccc32)n1` [Example 22], in data set [1] (setting [4]), the chromatographic logP was found to be 3.34. Regarding `O=C(CSc1nccc(-n2cccn2)n1)OCC(F)(F)C(F)(F)C(F)(F)C(F)F` [Example 58], the chromatographic logP in data set [1] (read-out: log P(pH 2.3)) was 3.42. On to `CCOC(=O)CSc1nccc(-n2cc3ccccc3n2)n1` [Example 23], for which, in data set [1] (setting [4]), the chromatographic logP was determined as 3.11. Regarding `CCOC(=O)CSc1nccc(-n2ccc(C)n2)n1` [Example 14], the chromatographic logP in data set [1] (setting [4]) is 2.51. For the compound `CN(CC(=O)OCC(F)(F)C(F)(F)C(F)(F)F)c1nccc(-n2cc(Cl)cn2)n1` [Example 83], the chromatographic logP in data set [1] (read-out: log P(pH 2.3)) is 4.46. On to `COc1cnn(-c2ccnc(N(C)CC(=O)O)n2)c1` [Example 61], for which, in data set [1] (setting [4]), the chromatographic logP amounted to 1.14. Regarding `O=C(CSc1nccc(-n2cccn2)n1)OCC(F)(F)C(F)(F)F`, in data set [3] (setting [6]), the pest or weed control at 500 ppm stood at 100%. Turning to `CCOC(=O)CSc1nccc(-n2cc(-c3ccc(Cl)cc3)cn2)n1`, the pest or weed control at 500 ppm in data set [3] (setting [6]) was 100%.

Turning to `CCOC(=O)CN(CC)c1nccc(-n2cccn2)n1` [Example 46], the chromatographic logP in data set [1] (setting [4]) is 2.53. For the compound `CCOC(=O)CSc1nccc(-n2cc(Br)cn2)n1`, the pest or weed control at 500 ppm in data set [3] (setting [7]) was 100%. As for `CCOC(=O)CSc1nccc(-n2nc(C(F)(F)F)cc2C(F)(F)F)n1` [Example 15], in data set [1] (setting [4]), the chromatographic logP came out at 4.03. Turning to `C=Cc1cnn(-c2ccnc(SCC(=O)OCC)n2)c1` [Example 96], in data set [1] (setting [4]), the chromatographic logP is 2.87.

Turning to `COc1cnn(-c2ccnc(N(C)CC(=O)OCC(F)(F)C(F)(F)C(F)(F)F)n2)c1`, the pest or weed control at 500 ppm in data set [3] came to 100%. For `COc1cnn(-c2ccnc(SCC(=O)O)n2)c1` [Example 84], in data set [1] (setting [4]), the chromatographic logP was determined as 1.45. Same read-out and setting: as for `CCOC(=O)CSc1nccc(-n2nc(C)c(Cl)c2C)n1` [Example 16], the figure is 3.83. On to `O=C(CSc1nccc(-n2cccn2)n1)OCC(Cl)Cl`, for which, in data set [3] (setting [6]), the pest or weed control at 500 ppm amounted to 100%. As to `CCOC(=O)CSc1nccc(-n2ncc3c2CCCC3)n1` [Example 18], in data set [1] (setting [4]), the chromatographic logP amounted to 3.34. Regarding `C#Cc1cnn(-c2ccnc(SCC(=O)OCC)n2)c1` [Example 74], the chromatographic logP in data set [1] (setting [4]) turned out to be 2.71. Same read-out and setting: as for `CCOC(=O)CSc1nccc(-n2cc(OC(C)C)cn2)n1` [Example 20], the figure is 3.15. On the same count and under the same terms, as for `O=C(CSc1nccc(-n2cccn2)n1)OCCCl` [Example 33], the figure is 2.3. Still for that read-out and setting: as for `CCOC(=O)CSc1nccc(-n2cc(C#N)cn2)n1` [Example 13], the figure is 2.32; as for `CCOC(=O)CSc1nccc(-n2cc(C(C)=O)cn2)n1` [Example 95], 2.07; as for `CCOC(=O)CSc1nccc(-n2ncc(SC(F)(F)F)c2C)n1` [Example 9], 4.08.

As for `O=C(CSc1nccc(-n2cccn2)n1)OCC(F)(F)C(F)F`, the pest or weed control at 500 ppm in data set [3] (setting [6]) is 100%. For the compound `CC(OC(=O)CSc1nccc(-n2cc(Br)cn2)n1)C(F)(F)C(F)(F)C(F)(F)F` (stereo not shown) [drawing 193], the pest or weed control at 500 ppm in data set [3] was determined as 100%. In the case of `CCOC(=O)CSc1nccc(-n2cccn2)n1` [drawing 174], in data set [3] (setting [7]), the pest or weed control at 500 ppm worked out at 95%.

As to `O=C(O)CSc1nccc(-n2cc(Br)cn2)n1` [Example 76], in data set [1] (setting [4]), the chromatographic logP amounted to 1.91.

Consider `CCOC(=O)CSc1nccc(-n2cc(C)cn2)n1` [Example 1, ethyl {[4-(4-methyl-1H-pyrazol-1-yl)-2-pyrimidinyl]thio}acetate], for which the chromatographic logP in data set [1] (setting [5]) turned out to be 2.28. Consider `CC(OC(=O)CSc1nccc(-n2cc(Br)cn2)n1)C(F)(F)C(F)(F)C(F)(F)F` (stereo not shown) [Example 94], for which the chromatographic logP in data set [1] (read-out: log P(pH 2.3)) worked out at 4.73.
